Reference: patent US7745493B2, “Methods of treating tardive dyskinesia and other movement disorders” (priority 1998, dated 2010)
Marks after values point to notes of the source that are not given here.

How the values were obtained:
[1] = tested on: person two with Parkinson's disease and peak-dose dyskinesia; assay: Case Report 3: peak-dose dyskinesia of treated Parkinson's disease; type: in vivo, human; conditions: Case 3; for effect on peak-dose dyskinesia: added to antiparkinson regime, memantine 10 mg three times a day, acamprosate 666 mg three times, then 333 mg four times a day, baclofen 30 and 60 mg daily, magnesium 300 mg three times a day
Protocol: The patient's Parkinson's disease was treated using levodopa/carbidopa and bromocriptine.
Prior to beginning treatment with acamprosate, the patient was on an antiparkinson treatment regime that consisted of 1 mg of pergolide three times a day, 5 mg of selegiline twice a day, and a combination of levodopa/carbidopa consisting of 550-600 mg of levodopa and 125-150 mg of carbidopa administered in divided doses.
The patient began acamprosate as an addition to the antiparkinson regime described above. Initially, the patient received 666 mg of acamprosate administered three times a day. Two weeks later the regime was adjusted such that the patient received 333 mg of acamprosate four times a day, taking one 333 mg pill with each daytime dose of 100 mg levodopa and 25 mg carbidopa. The patient's bedtime does of controlled-release levodopa-carbidopa (200 mg of levodopa and 50 mg of carbidopa) was continued, but were given without acamprosate. […] To confirm that the patient's improvement was due to the administration of acamprosate, the patient was taken off the acamprosate. […] During the period off acamprosate, an attempt was made to replace acamprosate with baclofen (a GABA-receptor agonist) at a total daily dose of 30 mg, and then with baclofen at a total daily dose of 60 mg.
Several months later, magnesium (300 mg elemental magnesium, as a mixed chelate), was added to the regimen. It was taken three times a day, together with a one of the patient's regular doses of levodopa/carbidopa. […] To establish whether the improvement was due to magnesium, the magnesium was stopped after several weeks.

[2] = tested on: person with simple tic of the neck; assay: Case Report 5: frequency of simple tic of the neck; type: in vivo, human; conditions: Case 5
Protocol: A person had simple tic of the neck that involved forceful extension and rotation of the neck to the right. The tic had started in the context of therapy of depression with dextroamphetamine and pramipexole, a dopamine agonist drug. The tic occurred from 20-50 times per hour, with greater frequency when they were tired or under stress.
They were initially treated with 666 mg of acamprosate three times a day. Within 24 hours after the start of acamprosate therapy, the frequency and severity of the tic decreased dramatically, to a rate of less than 5 per hour. The patient often was free of tics completely for 2 to 3 hours after each dose of acamprosate, after which time the tic would very gradually return. The dose was then raised to 666 mg four times a day. On this dose, rates of more than 5 per hour occurred only under unusually stressful circumstances, and there were frequent tic-free periods of 4 hours or more. […] On a second day without acamprosate, the rate of tics was again over 20 per hour.
[…] then added chelated magnesium, at a dosage of 300 mg of elemental magnesium 3 times a day. With magnesium supplementation, the average tic frequency dropped to 6 hour or less. When 666 mg of acamprosate was given three times a day was given together with magnesium 300 mg three times a day, the usual tic-free period after each acamprosate dose increased from approximately 3 hours to approximately 5 hours.

[3] = in vivo; cited from earlier work
[4] = tested on: person with extremely severe tardive dyskinesia and dystonia; assay: Case Report 4: patient self-report of TD treatment effects (weekly log); type: in vivo, human; conditions: for Memory: Memory and concentration / Well-being: General well being: 10 is best; for Side effects: 10 is none; for Balance: Difficulty maintaining balance / Face/tongue: Severity of face and tongue movements / Sweating / Trunk: Severity of trunk movements: 10 is worst
Text: A person had extremely severe tardive dyskinesia and dystonia, as a result of over 15 years of treatment of bipolar disorder with lithium and an assortment of neuroleptics. Their involuntary movements consisted of forced extension of the trunk, torsion of the lower legs, plantar flexion of the left foot, chorea of both arms, writhing of the tongue and grimacing. In addition, they had profuse sweating associated with the involuntary movements. To sit still in a chair, they had to forcefully grip both arms. In the chair, forced extension of the trunk practically lifted them out of the chair. Their trunk and leg movements led to impaired balance, with a staggering gait and frequent near-falls. The continual severe movements were associated with impairment in concentration, which made their work less efficient. By virtue of talent and intelligence, however, they were able to work competitively as a software engineer. Because their bipolar disorder remained an active problem, continued neurolepric treatment was necessary to maintain their mental health. They were maintained on lithium carbonate 300 mg three times a day, and risperidone 4 mg per day.
Their movement disorder had been treated with benzodiazepines, anticholinergics, and dopamine agonists, all without meaningful benefit. They were then treated with acamprosate, first at a dosage of 333 mg three times a day, and then at a dosage of 666 mg three times a day. Acamprosate therapy was then augmented with magnesium sulfate, 300 mg three times a day.
The patient maintained a weekly log of symptoms, which is reproduced here as Table 4. […] For several of their symptoms—trunk movement, balance, and sweating 666 mg of acamprosate three times a day of acamprosate was more efficacious than 333 mg three • 2) The addition of magnesium was associated with further improvement in several symptoms, i.e., movements of the face and tongue, neck and limbs; • 3) Benefits of acamprosate increased with continued therapy; • 4) Mental function, as indicated by subjective memory, improved along with the involuntary movements; • 5) The addition of memantine aggravated the involuntary movements.

3,338 patients = conditions: alcoholism treatment; cited from earlier work
[5] = tested on: person two with long-standing TD; assay: California Verbal Learning Test 16-items (Case 1); type: in vivo, human; conditions: ON drug
Text: (§1) The following tables report on the results of the neuropsychological tests (Drug I is memantine and Drug II is acamprosate): […]

[6] = tested on: person two with long-standing TD; assay: Verbal Fluency (Case 1); type: in vivo, human; conditions: ON drug
Text: as §1

[7] = week 1, regimen 1: 333 mg three times a day
[8] = week 2, regimen 2: 666 mg three times a day

SMILES: CC(=O)NCCCS(=O)(=O)O [acamprosate, calcium N-acetylhomotaurinate]
- effect on levodopa/carbidopa treatment of hypokinesia and rigidity [1]: no decrease in the efficacy
- periods without dyskinesia following each dose [1]: up to two hours
- time to return of dyskinetic movements after stopping [1]: Within one day
- effect on peak-dose dyskinesia [1]: reduced from moderate to mild intensity
- tic-free periods ([2]; 666 mg four times a day): ≥ 4 h
- tic rate ([2]; 666 mg three times a day): less than 5 per hour
- time to decrease of tic frequency and severity ([2]; after start of therapy): ≤ 24 h
- absorption from the GI tract [3]: irregularly absorbed
- Limbs [4, 7]: 6
- Neck [4, 7]: 7
- Memory: Memory and concentration [4, 7]: 9
- Well-being: General well being [4, 7]: 8
- Side effects [4, 7]: 7
- Balance: Difficulty maintaining balance [4, 7]: 7
- Face/tongue: Severity of face and tongue movements [4, 7]: 5
- Sweating [4, 7]: 8
- Trunk: Severity of trunk movements [4, 7]: 8
- Limbs [4, 8]: 7
- Neck [4, 8]: 7
- Memory: Memory and concentration [4, 8]: 9
- Well-being: General well being [4, 8]: 8
- Side effects [4, 8]: 7
- Balance: Difficulty maintaining balance [4, 8]: 5
- Face/tongue: Severity of face and tongue movements [4, 8]: 7
- Sweating [4, 8]: 5
- Trunk: Severity of trunk movements [4, 8]: 6
- side effects in controlled trials (3,338 patients): no severe medical or neurological side effects

SMILES: CC12CC3CC(C)(C1)CC(N)(C3)C2 [memantine]
- effect on peak-dose dyskinesia [1]: reduced their dyskinetic movements from severe to mild-to-moderate
- CVLT List A 1-5 total (80 max) ([5]; higher score better): 53
- CVLT List A Trial 1 ([5]; higher score better): 7
- CVLT List A Trial 5 ([5]; higher score better): 13
- CVLT List B ([5]; higher score better): 7
- CVLT Long-Delay Cued Recall ([5]; higher score better): 15
- CVLT Long-Delay Free Recall ([5]; higher score better): 12
- CVLT Recognition Hits ([5]; higher score better): 16
- CVLT Short-Delay Cued Recall ([5]; higher score better): 13
- CVLT Short-Delay Free Recall ([5]; higher score better): 10
- CVLT False Positives ([5]; lower score better): 3
- CVLT Intrusions ([5]; lower score better): 6
- CVLT Perseverations ([5]; lower score better): 23
- Verbal Fluency Category (Animals) Per [6]: Per = 0^b
- Verbal Fluency Letter (CFL) Per [6]: Per = 2^b
- Verbal Fluency Category (Animals) Total ([6]; higher score better): Total = 25
- Verbal Fluency Letter (CFL) Total ([6]; higher score better): Total = 70
